{
  "source": "patent US7202280B2",
  "about": "“Methods for the treatment and prevention of pancreatitis and for induction of liver regeneration” (priority 2002, dated 2007)",
  "key": {"[1]": {"tested_on": "SSAT", "experiment": "Hepatic, pancreatic and renal SSAT activity in syngenic and metallothionein-SSAT mice after analogue", "type": "in vivo, mouse", "conditions": "24 h before sacrifice", "description": "(§1) α-methylspermidine, Bis-α-methylspermine and α-methylspermine were administered in saline. […] The data are expressed as means ±S.D. For statistical analysis, the two-tailed Student's t test was used."}, "[2]": {"tested_on": "syngenic and metallothionein-SSAT mice", "experiment": "Hepatic, pancreatic and renal polyamine concentration in syngenic and metallothionein-SSAT mice after analogue", "type": "in vivo, mouse", "conditions": "Sg (syngenic) mice, 24 h before sacrifice", "description": "as §1"}, "[3]": {"conditions": "Tg (transgenic) mice, 12.5 mg/kg"}, "[4]": {"conditions": "Tg (transgenic) mice, 37.5 mg/kg"}},
  "data": [
    {"smiles": "CC(N)CCNCCCCNCCCN", "note": "(stereo not drawn) [α-methylspermine, 1-methylspermine]", "values": [
      {"measurement": "SSAT activity, Kidney", "setting": "[1]; Sg (syngenic) mice, 12.5 mg/kg", "result": "3.65 ± 2.39 ^+ pmoles/10 min/ tissue wet weight"},
      {"measurement": "SSAT activity, Liver", "setting": "[1]; Sg (syngenic) mice, 12.5 mg/kg", "result": "0.47 pmoles/10 min/ tissue wet weight"},
      {"measurement": "SSAT activity, Pancreas", "setting": "[1]; Sg (syngenic) mice, 12.5 mg/kg", "result": "2.03 pmoles/10 min/ tissue wet weight"},
      {"measurement": "SSAT activity, Kidney", "setting": "[1]; Sg (syngenic) mice, 25 mg/kg", "result": "2.76 ± 2.52 pmoles/10 min/ tissue wet weight"},
      {"measurement": "SSAT activity, Liver", "setting": "[1]; Sg (syngenic) mice, 25 mg/kg", "result": "0.26 pmoles/10 min/ tissue wet weight"},
      {"measurement": "SSAT activity, Pancreas", "setting": "[1]; Sg (syngenic) mice, 25 mg/kg", "result": "1.72 pmoles/10 min/ tissue wet weight"},
      {"measurement": "SSAT activity, Kidney", "setting": "[1]; Sg (syngenic) mice, 37.5 mg/kg", "result": "4.29 ± 2.38 pmoles/10 min/ tissue wet weight"},
      {"measurement": "SSAT activity, Liver", "setting": "[1]; Sg (syngenic) mice, 37.5 mg/kg", "result": "0.75 pmoles/10 min/ tissue wet weight"},
      {"measurement": "SSAT activity, Pancreas", "setting": "[1]; Sg (syngenic) mice, 37.5 mg/kg", "result": "1.46 pmoles/10 min/ tissue wet weight"},
      {"measurement": "SSAT activity, Kidney", "setting": "[1]; Sg (syngenic) mice, 50 mg/kg", "result": "3.20 ± 2.40 pmoles/10 min/ tissue wet weight"},
      {"measurement": "SSAT activity, Liver", "setting": "[1]; Sg (syngenic) mice, 50 mg/kg", "result": "0.52 pmoles/10 min/ tissue wet weight"},
      {"measurement": "SSAT activity, Pancreas", "setting": "[1]; Sg (syngenic) mice, 50 mg/kg", "result": "2.23 pmoles/10 min/ tissue wet weight"},
      {"measurement": "SSAT activity, Kidney", "setting": "[1]; [3]", "result": "5.86 ± 1.91 pmoles/10 min/ tissue wet weight"},
      {"measurement": "SSAT activity, Liver", "setting": "[1]; [3]", "result": "21.19 pmoles/10 min/ tissue wet weight"},
      {"measurement": "SSAT activity, Pancreas", "setting": "[1]; [3]", "result": "609.10 pmoles/10 min/ tissue wet weight"},
      {"measurement": "SSAT activity, Kidney", "setting": "[1]; Tg (transgenic) mice, 25 mg/kg", "result": "3.06 ± 2.23 pmoles/10 min/ tissue wet weight"},
      {"measurement": "SSAT activity, Liver", "setting": "[1]; Tg (transgenic) mice, 25 mg/kg", "result": "30.81 pmoles/10 min/ tissue wet weight"},
      {"measurement": "SSAT activity, Pancreas", "setting": "[1]; Tg (transgenic) mice, 25 mg/kg", "result": "561.36 pmoles/10 min/ tissue wet weight"},
      {"measurement": "SSAT activity, Kidney", "setting": "[1]; [4]", "result": "3.47 ± 2.52 pmoles/10 min/ tissue wet weight"},
      {"measurement": "SSAT activity, Liver", "setting": "[1]; [4]", "result": "24.88 pmoles/10 min/ tissue wet weight"},
      {"measurement": "SSAT activity, Pancreas", "setting": "[1]; [4]", "result": "543.84 pmoles/10 min/ tissue wet weight"},
      {"measurement": "SSAT activity, Kidney", "setting": "[1]; Tg (transgenic) mice, 50 mg/kg", "result": "2.95 ± 1.82 pmoles/10 min/ tissue wet weight"},
      {"measurement": "SSAT activity, Liver", "setting": "[1]; Tg (transgenic) mice, 50 mg/kg", "result": "39.44 pmoles/10 min/ tissue wet weight"},
      {"measurement": "SSAT activity, Pancreas", "setting": "[1]; Tg (transgenic) mice, 50 mg/kg", "result": "707.60 pmoles/10 min/ tissue wet weight"},
      {"measurement": "hepatic concentration, α-Methylspermine", "setting": "[2]; 12.5 mg/kg", "result": "470.60 pmoles/mg tissue wet weight"},
      {"measurement": "hepatic polyamine concentration, N^1-Acetylspermidine", "setting": "[2]; 12.5 mg/kg", "result": "37.49 pmoles/mg tissue wet weight"},
      {"measurement": "hepatic polyamine concentration, Putrescine", "setting": "[2]; 12.5 mg/kg", "result": "39.46 pmoles/mg tissue wet weight"},
      {"measurement": "hepatic polyamine concentration, Spermidine", "setting": "[2]; 12.5 mg/kg", "result": "669.94 pmoles/mg tissue wet weight"},
      {"measurement": "hepatic polyamine concentration, Spermine", "setting": "[2]; 12.5 mg/kg", "result": "568.21 pmoles/mg tissue wet weight"},
      {"measurement": "pancreatic polyamine concentration, N^1-Acetylspermidine", "setting": "[2]; 12.5 mg/kg", "result": "56.32 pmoles/mg tissue wet weight"},
      {"measurement": "pancreatic polyamine concentration, N^8-Acetylspermidine", "setting": "[2]; 12.5 mg/kg", "result": "17.17 pmoles/mg tissue wet weight"},
      {"measurement": "pancreatic polyamine concentration, Putrescine", "setting": "[2]; 12.5 mg/kg", "result": "80.74 pmoles/mg tissue wet weight"},
      {"measurement": "pancreatic polyamine concentration, Spermidine", "setting": "[2]; 12.5 mg/kg", "result": "7952.04 pmoles/mg tissue wet weight"},
      {"measurement": "pancreatic polyamine concentration, Spermine", "setting": "[2]; 12.5 mg/kg", "result": "1048.44 pmoles/mg tissue wet weight"},
      {"measurement": "renal concentration, α-Methylspermine", "setting": "[2]; 12.5 mg/kg", "result": "197.48 ± 6.80 pmoles/mg tissue wet weight"},
      {"measurement": "renal polyamine concentration, N^1-Acetylspermidine", "setting": "[2]; 12.5 mg/kg", "result": "46.16 pmoles/mg tissue wet weight"},
      {"measurement": "renal polyamine concentration, N^8-Acetylspermidine", "setting": "[2]; 12.5 mg/kg", "result": "24.91 pmoles/mg tissue wet weight"},
      {"measurement": "renal polyamine concentration, Putrescine", "setting": "[2]; 12.5 mg/kg", "result": "48.17 pmoles/mg tissue wet weight"},
      {"measurement": "renal polyamine concentration, Spermidine", "setting": "[2]; 12.5 mg/kg", "result": "312.55 pmoles/mg tissue wet weight"},
      {"measurement": "renal polyamine concentration, Spermine", "setting": "[2]; 12.5 mg/kg", "result": "247.41 pmoles/mg tissue wet weight"},
      {"measurement": "hepatic concentration, α-Methylspermine", "setting": "[2]; 25 mg/kg", "result": "420.20 pmoles/mg tissue wet weight"},
      {"measurement": "hepatic polyamine concentration, Putrescine", "setting": "[2]; 25 mg/kg", "result": "44.18 pmoles/mg tissue wet weight"},
      {"measurement": "hepatic polyamine concentration, Spermidine", "setting": "[2]; 25 mg/kg", "result": "1015.51 pmoles/mg tissue wet weight"},
      {"measurement": "hepatic polyamine concentration, Spermine", "setting": "[2]; 25 mg/kg", "result": "411.06 pmoles/mg tissue wet weight"},
      {"measurement": "pancreatic polyamine concentration, N^1-Acetylspermidine", "setting": "[2]; 25 mg/kg", "result": "19.45 pmoles/mg tissue wet weight"},
      {"measurement": "pancreatic polyamine concentration, N^8-Acetylspermidine", "setting": "[2]; 25 mg/kg", "result": "24.47 pmoles/mg tissue wet weight"},
      {"measurement": "pancreatic polyamine concentration, Putrescine", "setting": "[2]; 25 mg/kg", "result": "50.98 pmoles/mg tissue wet weight"},
      {"measurement": "pancreatic polyamine concentration, Spermidine", "setting": "[2]; 25 mg/kg", "result": "5421.66 pmoles/mg tissue wet weight"},
      {"measurement": "pancreatic polyamine concentration, Spermine", "setting": "[2]; 25 mg/kg", "result": "729.10 pmoles/mg tissue wet weight"},
      {"measurement": "renal concentration, α-Methylspermine", "setting": "[2]; 25 mg/kg", "result": "228.87 ± 6.44 pmoles/mg tissue wet weight"},
      {"measurement": "renal polyamine concentration, N^1-Acetylspermidine", "setting": "[2]; 25 mg/kg", "result": "59.48 pmoles/mg tissue wet weight"},
      {"measurement": "renal polyamine concentration, N^8-Acetylspermidine", "setting": "[2]; 25 mg/kg", "result": "25.80 pmoles/mg tissue wet weight"},
      {"measurement": "renal polyamine concentration, Putrescine", "setting": "[2]; 25 mg/kg", "result": "122.64 pmoles/mg tissue wet weight"},
      {"measurement": "renal polyamine concentration, Spermidine", "setting": "[2]; 25 mg/kg", "result": "215.41 pmoles/mg tissue wet weight"},
      {"measurement": "renal polyamine concentration, Spermine", "setting": "[2]; 25 mg/kg", "result": "272.18 pmoles/mg tissue wet weight"},
      {"measurement": "hepatic concentration, α-Methylspermine", "setting": "[2]; 37.5 mg/kg", "result": "510.72 pmoles/mg tissue wet weight"},
      {"measurement": "hepatic polyamine concentration, Spermidine", "setting": "[2]; 37.5 mg/kg", "result": "830.89 pmoles/mg tissue wet weight"},
      {"measurement": "hepatic polyamine concentration, Spermine", "setting": "[2]; 37.5 mg/kg", "result": "485.75 pmoles/mg tissue wet weight"},
      {"measurement": "pancreatic polyamine concentration, Putrescine", "setting": "[2]; 37.5 mg/kg", "result": "36.15 pmoles/mg tissue wet weight"},
      {"measurement": "pancreatic polyamine concentration, Spermidine", "setting": "[2]; 37.5 mg/kg", "result": "5806.20 pmoles/mg tissue wet weight"},
      {"measurement": "pancreatic polyamine concentration, Spermine", "setting": "[2]; 37.5 mg/kg", "result": "804.72 pmoles/mg tissue wet weight"},
      {"measurement": "renal concentration, α-Methylspermine", "setting": "[2]; 37.5 mg/kg", "result": "245.67 ± 38.85 pmoles/mg tissue wet weight"},
      {"measurement": "renal polyamine concentration, N^1-Acetylspermidine", "setting": "[2]; 37.5 mg/kg", "result": "30.29 pmoles/mg tissue wet weight"},
      {"measurement": "renal polyamine concentration, N^8-Acetylspermidine", "setting": "[2]; 37.5 mg/kg", "result": "24.30 pmoles/mg tissue wet weight"},
      {"measurement": "renal polyamine concentration, Putrescine", "setting": "[2]; 37.5 mg/kg", "result": "59.01 pmoles/mg tissue wet weight"},
      {"measurement": "renal polyamine concentration, Spermidine", "setting": "[2]; 37.5 mg/kg", "result": "244.82 pmoles/mg tissue wet weight"},
      {"measurement": "renal polyamine concentration, Spermine", "setting": "[2]; 37.5 mg/kg", "result": "207.72 pmoles/mg tissue wet weight"},
      {"measurement": "hepatic concentration, α-Methylspermine", "setting": "[2]; 50 mg/kg", "result": "521.41 pmoles/mg tissue wet weight"},
      {"measurement": "hepatic polyamine concentration, N^1-Acetylspermidine", "setting": "[2]; 50 mg/kg", "result": "45.74 pmoles/mg tissue wet weight"},
      {"measurement": "hepatic polyamine concentration, N^8-Acetylspermidine", "setting": "[2]; 50 mg/kg", "result": "15.33 pmoles/mg tissue wet weight"},
      {"measurement": "hepatic polyamine concentration, Putrescine", "setting": "[2]; 50 mg/kg", "result": "22.71 pmoles/mg tissue wet weight"},
      {"measurement": "hepatic polyamine concentration, Spermidine", "setting": "[2]; 50 mg/kg", "result": "780.24 pmoles/mg tissue wet weight"},
      {"measurement": "hepatic polyamine concentration, Spermine", "setting": "[2]; 50 mg/kg", "result": "419.39 pmoles/mg tissue wet weight"},
      {"measurement": "pancreatic polyamine concentration, N^8-Acetylspermidine", "setting": "[2]; 50 mg/kg", "result": "19.89 pmoles/mg tissue wet weight"},
      {"measurement": "pancreatic polyamine concentration, Putrescine", "setting": "[2]; 50 mg/kg", "result": "107.70 pmoles/mg tissue wet weight"},
      {"measurement": "pancreatic polyamine concentration, Spermidine", "setting": "[2]; 50 mg/kg", "result": "6839.92 pmoles/mg tissue wet weight"}
    ]}
  ]
}
